Values joined by “and” are separate entries in the source; they are usually repeats but may differ in a detail not shown here. Equal entries are not always repeated. “Also recorded” adds a separate entry of the source. Where two headings read alike, the source gives them in different places.
Legend:
normal human volunteer = assay: Double blind study of sub-lingual d-modafinil composition in a normal human volunteer; format: in vivo
Method: The test subject was given three vials: one vial containing the base formulation (as in Example 1) to test the taste and delivery means, and two coded vials. One of the coded vials contained 100 mg of d-modafinil formulation, and the second coded vial contained placebo (an equivalent amount of formulation).
The subject was instructed to place the contents of the test formulation under the tongue, to allow the formulation to dissolve over two minutes, and to rinse any residual material with some water.

extracellular dopamine = conditions: in vivo; cited from earlier work
dopamine reuptake pump = dopamine reuptake pump (Homo sapiens, UniProt Q01959); conditions: in vitro studies; cited from earlier work
dopamine reuptake pump, sequence (Q01959 whole entry): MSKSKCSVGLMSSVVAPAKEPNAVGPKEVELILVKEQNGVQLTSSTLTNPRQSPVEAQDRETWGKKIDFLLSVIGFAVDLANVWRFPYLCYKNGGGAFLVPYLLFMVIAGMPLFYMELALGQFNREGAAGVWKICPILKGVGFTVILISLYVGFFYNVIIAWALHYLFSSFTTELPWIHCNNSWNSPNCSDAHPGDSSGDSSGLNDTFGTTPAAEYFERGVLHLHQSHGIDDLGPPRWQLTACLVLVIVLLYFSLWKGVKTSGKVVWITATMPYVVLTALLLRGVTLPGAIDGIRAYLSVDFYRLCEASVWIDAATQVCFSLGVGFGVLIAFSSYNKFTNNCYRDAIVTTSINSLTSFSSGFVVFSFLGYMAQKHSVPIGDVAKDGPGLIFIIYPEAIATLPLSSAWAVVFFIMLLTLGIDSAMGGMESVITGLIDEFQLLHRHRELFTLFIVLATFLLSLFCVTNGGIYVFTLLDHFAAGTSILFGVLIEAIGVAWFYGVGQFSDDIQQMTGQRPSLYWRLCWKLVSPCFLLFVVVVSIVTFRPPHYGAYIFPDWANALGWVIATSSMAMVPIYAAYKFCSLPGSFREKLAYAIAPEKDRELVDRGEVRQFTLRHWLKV

[1] = cited from earlier work
normal human volunteers = assay: Double blind crossover study of sub-lingual d-modafinil in normal human volunteers (VAS, difficulty to fall asleep); format: in vivo; set-up: key to Visual Analog Scale (0 to 3), difficulty to fall asleep: 0: fell asleep as usual; 1: slight, noticeable change; 2: noticeable change; 3: extreme change (kept awake most of night); conditions: 200 mg sublingual, one hour before bedtime
Method: Two subjects received a set of coded vials containing either 200 mg of d-modafinil formulated according to Example 1 or an equivalent placebo formulation.
The subjects were given the following instructions:
Start testing at approximately the same time every evening, one hour before bedtime.
Randomly select one of the coded vials each day.
Open the vials and place the powder under your tongue.
Allow the powder to dissolve slowly for approximately 1-2 minutes.
After the powder is fully dissolved, you may drink some water.
Record observations in a Visual Analogue Scale (VAS) describing the difficulty to fall asleep.

mice = conditions: cited from earlier work

Row | Structure (SMILES) | effect on wakefulness (subject's report) (normal human volunteer; 200 mg Provigil at 10 p.m., same subject about one week before, not blinded) | effect on extracellular dopamine (extracellular dopamine) | effect on reuptake of dopamine (dopamine reuptake pump) | time to reach maximum plasma concentrations ([1]; after a single oral dose) [h] | half-life (T1/2) in the human body [1] | fraction of modafinil eliminated by the liver ([1]; ingestion of PROVIGIL tablets, humans) [%] | effect on wakefulness (subject's blinded report) (normal human volunteer; 100 mg sublingual at 11:15 p.m., one subject) | wakefulness effect compared with 200 mg racemic modafinil (normal human volunteer; 100 mg sublingual, same subject) | subject's reported observations on sleep and alertness (normal human volunteers) | Visual Analog Scale (0 to 3), difficulty to fall asleep (normal human volunteers; Subject 1, Subject 2) | pharmacological activity compared with the modafinil racemic compound (mice) | amount in the circulation compared with l-modafinil ([1]; after use of racemic modafinil) | half-life (T1/2) in the human body ([1]; listed as 1-modafinil) [h]
1 | NC(=O)C[S+]([O-])C(c1ccccc1)c1ccccc1 (racemic) [racemic modafinil, 2-[(diphenylmethyl)sulfinyl]acetamide] | very pronounced effect | increases extracellular dopamine | inhibit the reuptake of dopamine | 2 to 4 | about 15 hours | ≤ 90 |  |  |  |  |  |  | 
2 | NC(=O)C[S@+]([O-])C(c1ccccc1)c1ccccc1 [d-modafinil, (d)-(+)-modafinil] |  |  |  |  |  |  | active | neither test substance kept them awake as strongly or as long as the 200 mg racemic modafinil | took longer than usual to fall asleep; also recorded: significantly more alert | 1 and 2 | same pharmacological activity | three times less | 
3 | NC(=O)C[S@@+]([O-])C(c1ccccc1)c1ccccc1 [l-modafinil] |  |  |  |  | 10 to 14 h |  |  |  |  |  | same pharmacological activity |  | 13 to 16

Source: US20090123545A1, “Rapid Onset and Short Term Modafinil Compositions and Methods of Use Thereof” (priority 2005, published 2009)
